Reference: US8377991B2, “Trans-clomiphene for metabolic syndrome” (priority 2007, dated 2013)
Structures can show the parent of a compound that is named as a salt. Values belong to the compound of their own block, whether it stands above or below them.

What was measured:
total serum testosterone = assay: Serum testosterone in male baboons given Clomid, Enclomid or Zuclomid; assay type: in vivo; details: for effect on total serum testosterone: 1.5 mg/kg for 12 days, vs baseline or day 0
Description: There were significant increases in total serum testosterone in the group receiving Enclomid. There were no differences among groups in the baseline period or at day 0. There were also no differences among the three groups 7 days after treatment (the washout period). However, Enclomid produced higher levels of testosterone compared to Clomid and Zuclomid on day 6 (p=0.03 and p=0.00002 respectively) and compared to Zuclomid on day 12 (p=0.047). […] Enclomid was clearly better and more consistent than Clomid itself and Zuclomid was ineffective.

[1] = in vivo
Description: Adult, male, Baboons were given 1.5 mg/kg of Clomid (clomiphene citrate), Enclomid (trans-Clomiphene) or Zuclomid (cis-clomiphene) for 12 consecutive days. The samples analyzed were sera taken on the day of first treatment before being given test article (day 0), after 12 days of treatment (day 12) and 7 days after the last treatment (end or wash-out).

serum LH, FSH, PRL = assay: Body weight and serum LH, FSH, PRL in male baboons; assay type: in vivo; details: during the study
Description: There were no changes in serum LH or FSH. […] There was also no change in body weight during the 12 day study.

total testosterone = details: hypogonadal men; 50 mg dose
Description: (§1) A placebo controlled challenge study was conducted at the Advanced Biological Research, Inc. (ABR) Clinical Research Center in Hackensack, N.J. to compare orally administered Androxal™ (trans-clomiphene) to Androgel® in hypogonadal men.
(§2) Half of the men in each of the Androxal™ and placebo arms were randomized into cohorts that underwent in-clinic sessions on days 1 and 14 to determine pharmacokinetic parameters for Androxal™ as well as cyclical changes in testosterone. The placebo and Androxal™ doses were administered in a double blind fashion. The Androgel® cream was administered in an open label fashion. Half of the Androgel® patients underwent in-clinic sessions similar to the other patients in the study. Following the two week drug exposure, patients were followed for an additional seven to ten days to determine the status of their testosterone levels.

fasting glucose levels = details: patients with BMI>26; 50 mg dose; at the 3 and 4.5 month periods
Description: A placebo controlled study was conducted to determine the effects of orally administered Androxal™ (trans-clomiphene) and Androgel® on blood glucose levels.
The study enrolled hypogonadal men (testosterone less than 300 ng/dl) with a broad range of body mass indices (BMI). […] The placebo and Androxal™ doses were administered in a double blind fashion. The Androgel® cream was administered in an open label fashion. Fasting glucose levels were monitored in the patients immediately prior to treatment (baseline) and at regular intervals during the study.

serum LH and FSH = details: hypogonadal male subjects, two week treatment
Description: as §1, §2

[2] = Androxal vs Androgel study: other clinical chemistry (DHT/TT, triglycerides) and side effects; assay type: in vivo; details: hypogonadal men, after two weeks of therapy; non-dose dependent

Structure (SMILES): CCN(CC)CCOc1ccc(C(=C(Cl)c2ccccc2)c2ccccc2)cc1 [Clomid, clomiphene citrate]
effect on total serum testosterone (total serum testosterone): more variable total testosterone levels on day 6 and later | ALT/SGPT [1]: out of range low at the end of the study | BUN and BUN/creatinine [1]: altered during the study | serum carbon dioxide [1]: higher than reference values on day 12 | increase in serum glucose ([1]; 1.5 mg/kg): within the normal range

Structure (SMILES): CCN(CC)CCOc1ccc(/C(=C(\Cl)c2ccccc2)c2ccccc2)cc1 [Enclomid, trans-clomiphene]
effect on total serum testosterone (total serum testosterone): significantly and statistically raised total serum testosterone on days 6 and 12 | total serum testosterone after cessation of treatment (total serum testosterone; day 12 to day 18 (washout)): significant drop in the level of total serum testosterone between day 12 and day 18 | serum prolactin (PRL) (serum LH, FSH, PRL): decrease in serum prolactin (PRL) | mean total testosterone after 15 days (total testosterone): 589 ± 172 ng/dL | reduction in serum glucose from baseline (fasting glucose levels): ~24 mg/dL | BUN and BUN/creatinine [1]: altered during the study | percent of granulocytes in the blood [1]: strong effect of Enclomid on lowering the percent of granulocytes | platelet count [1]: pushed the platelet count to its normal male level | serum alkaline phosphatase (ALP) [1]: decreased in value | counts of eosinophiles ([1]; 1.5 mg/kg): raising the counts of lymphocytes and eosinophiles | effects on the red blood cell population ([1]; 1.5 mg/kg): substantive effects on the red blood cell population | increase in serum glucose ([1]; 1.5 mg/kg): no increases with treatment | serum levels of FSH (serum LH and FSH): boosts serum FSH | reduction in triglycerides, average decrease [2]: 19.1%

serum alkaline phosphatase (ALP) [1]: not elevated | serum carbon dioxide [1]: higher than reference values on day 12 | increase in serum glucose ([1]; 1.5 mg/kg): within the normal range
Structure (SMILES): CCN(CC)CCOc1ccc(/C(=C(/Cl)c2ccccc2)c2ccccc2)cc1 [Zuclomid, cis-clomiphene]
effects on the red blood cell population ([1]; 1.5 mg/kg): substantive effects on the red blood cell population
